How the values were obtained:
[1] = rodents; cited from earlier work
Gad2:Ndufs4cKO mice [2] = assay: Survival of Gad2:Ndufs4cKO mice (cell type-specific mouse model of Leigh syndrome); assay type: in vivo
From the text: (§1) Two mouse lines were used in this study: (1) a validated mouse genetic model of MD (Kruse, S. E., et al. Cell Metab. 2008, 7: 312-320; Quintana, A., et al. Proc. Natl. Acad. Sci. USA. 2010, 107: 10996-11001), lacking Ndufs4 constitutively (Ndufs4^−/−, Ndufs4 KO) and wild-type (WT) littermates (Ndufs4^+/+) as controls, and (2) a conditional knockout mouse line lacking Ndufs4 selectively in GABAergic cells (Bolea et al. 2019 (https://elifesciences.org/articles/47163). For the latter, mice expressing cre-recombinase under the control of the Gad2 promoter (Quintana, A., et al. Nat. Neurosci. 2012, 15: 1547-1555) and one floxed Ndufs4 allele (Gad2^cre/+:Ndufs4^lox/+) were bred with mice carrying two floxed Ndufs4 alleles (Ndufs4^lox/lox). Out of all the possible offspring, Gad2^cre/+: Ndufs4^lox/lox mice bear Ndufs4 deficiency selectively in GABAergic neurons. Mice with Gad2^cre/+:Ndufs4^lox/+ genotype with one functional Ndufs4 allele as well as mice with the Gad2^cre/+:Ndufs4^lox/lox genotype were used as controls.
Given the early onset severe phenotype that results in death at a median age of ˜40 days in Ndufs4^−/− mice, it is difficult to study certain clinical signs that recapitulate some symptoms of the human pathology. […]

Ndufs4−/− mice [3] = assay: Clasping onset in Ndufs4−/− mice; assay type: in vivo, mouse; conditions: CBD 100 mg/kg once daily vs vehicle-treated, p<0.05
From the text: as §1
Clasping behaviour was used as a sign of neurological degeneration (Johnson, S. C., et al. Science. 2013, 342: 1524-1528). Clasping consisted in an inward curling of the spine and a retraction of the forelimbs and/or hindlimbs toward the midline of the body.

Ndufs4−/− mice [4] = assay: Accelerating rotarod performance in Ndufs4−/− mice; assay type: in vivo, mouse; conditions: Ndufs4KO mice, CBD 100 mg/kg once daily; postnatal day 30, 40, 50
From the text: as §1
Rotarod was performed at postnatal day 30, 40, and 50. Mice were placed on a rotating drum that gradually accelerated from 4 rpm to 40 rpm over 300 sec. Each trial ended when a mouse fell off, made one complete backward revolution while hanging on, or reached 5-min. Each mouse was tested in 3 trials/day spaced 20 min apart. The results of the 3 trials were averaged.

Gad2:Ndufs4cKO mice [5] = assay: Three-chamber social approach test; assay type: in vivo, mouse; conditions: control mice, CBD 100 mg/kg twice/day
From the text: as §1, with “Mice with Gad2^cre/+:Ndufs4^lox/+ genotype with one functional Ndufs4 allele as well as mice with the Gad2^cre/+:Ndufs4^lox/lox genotype were used as controls.” left out
A three-chamber arena was used to assess sociability as previously described (Puighermanal et al, Front Mol Neurosci., 2017, 10:419). […] The time spent sniffing the unfamiliar mouse and the empty wire cage was manually scored. The discrimination index for sociability was calculated as follows: (time exploring unfamiliar mouse—time exploring empty wire cage)/(total exploration time)*100. […]

Ndufs4−/− mice [6] = assay: Survival of Ndufs4−/− mice (mouse model of Leigh syndrome); assay type: in vivo
From the text: as §1
Ndufs4 encodes a protein involved in assembly, stability, and activity of complex I of the mitochondrial electron transport chain. Ndufs4^−/− mice display a progressive neurodegenerative phenotype, which resembles the human disease and includes retarded growth rate, weight loss, lethargy, loss of motor skills, and premature death.

## C=C(C)[C@@H]1CCC(C)=C[C@H]1c1c(O)cc(CCCCC)cc1O [CBD, (−)-trans-2-p-mentha-l,8-dien-3-yl-5-pentylresorcinol]
[1]
  half-life: ~4.5 h
Gad2:Ndufs4cKO mice [2]; CBD 100 mg/kg intraperitoneal twice daily from postnatal day 35-40, p<0.0001
  average survival time: 87 days
Gad2:Ndufs4cKO mice [2]; CBD 100 mg/kg twice daily, log-rank p<0.0001
  life span (survival): extended the life span
Ndufs4−/− mice [3]
  appearance (onset) of clasping: significantly delayed
Ndufs4−/− mice [4]
  rotarod performance (time to fall off): delayed the progressive decline
Gad2:Ndufs4cKO mice [5]
  sociability (social interaction): no effect
Ndufs4−/− mice [6]; Ndufs4KO mice, CBD 100 mg/kg once/day intraperitoneal from postnatal day 24-30
  median survival: 75.5 days
Ndufs4−/− mice [6]; Ndufs4−/− mice, CBD 100 mg/kg once daily, log-rank p<0.0001
  life span (survival): significantly extended the life span
